{
  "source": "patent US20060084704A1",
  "about": "“Methods and compositions for enhancing degradation of nuclear receptor transcription factors and uses thereof” (priority 2004, published 2006)",
  "target": "T1, AR (Homo sapiens, UniProt P10275, T878A)",
  "T1 construct": "LNCaP cells express an endogenous mutant AR that is found in prostate cancer patients; host or cells: LNCaP",
  "T1 sequence (P10275 1-920 T878A)": "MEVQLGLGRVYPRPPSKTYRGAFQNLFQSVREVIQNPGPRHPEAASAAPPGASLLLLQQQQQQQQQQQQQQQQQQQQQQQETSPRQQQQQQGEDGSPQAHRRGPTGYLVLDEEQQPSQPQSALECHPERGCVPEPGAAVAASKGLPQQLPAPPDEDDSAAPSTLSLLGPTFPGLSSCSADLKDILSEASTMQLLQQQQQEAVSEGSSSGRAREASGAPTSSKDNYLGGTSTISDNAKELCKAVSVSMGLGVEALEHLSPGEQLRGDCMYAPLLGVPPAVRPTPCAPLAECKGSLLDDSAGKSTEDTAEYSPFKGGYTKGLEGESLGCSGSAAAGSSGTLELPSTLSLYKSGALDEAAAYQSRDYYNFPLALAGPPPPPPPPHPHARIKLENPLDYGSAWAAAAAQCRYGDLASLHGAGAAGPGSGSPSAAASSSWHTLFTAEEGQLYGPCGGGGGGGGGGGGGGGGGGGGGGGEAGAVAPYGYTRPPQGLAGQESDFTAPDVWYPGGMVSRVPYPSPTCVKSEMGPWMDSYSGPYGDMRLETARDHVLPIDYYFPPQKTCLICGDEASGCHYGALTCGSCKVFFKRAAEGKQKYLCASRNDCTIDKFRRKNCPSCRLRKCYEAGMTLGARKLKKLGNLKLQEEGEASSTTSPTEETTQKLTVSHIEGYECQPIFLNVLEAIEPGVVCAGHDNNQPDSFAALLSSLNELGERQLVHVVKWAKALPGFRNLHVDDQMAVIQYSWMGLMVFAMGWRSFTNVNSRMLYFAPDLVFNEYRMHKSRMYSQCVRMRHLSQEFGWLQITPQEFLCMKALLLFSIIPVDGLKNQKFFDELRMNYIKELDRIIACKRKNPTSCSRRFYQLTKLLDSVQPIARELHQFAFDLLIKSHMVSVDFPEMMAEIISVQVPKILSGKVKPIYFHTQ",
  "experiment": "Western blot analysis of AR expression in JC9-treated LNCaP cells over 5 days",
  "assay_type": "cell-based",
  "excerpt": "A Western blot method suitable for detecting degradation of the androgen receptor (AR) has been previously described (Su et al., 1999). Briefly, cells (for example, LNCap cells) are harvested either in 2× sodium dodecyl sulfate (SDS) loading buffer or in radioimmunoprecipitation assay (RIPA) lysis buffer (see “Antibodies: A Laboratory Manual”, E. Harlow and D. Lane, Cold Spring Harbor Laboratory, 1988) containing 10 micrograms/milliliter of benzamidine, 10 micrograms/milliliter of trypsin inhibitor, and 1 millimolar of phenylmethylsulfonyl fluoride (PMSF). Total protein (40 micrograms/sample, or as desired) from cell lysate is separated on a SDS-PAGE gel. […] The membrane is rinsed with PBST, and a suitable visualization procedure is used to detect the secondary antibody (for example, horseradish peroxidase can be detected with a colorimetric substrate or by a chemiluminescent substrate such as that provided by the enhanced chemiluminescence (ECL Plus) kit from Amersham). […] Quantification of the protein signals can be carried out by densitometry, using appropriate software (ImageJ software from the National Institutes of Health).\nAR is the key factor in regulating prostate cancer cells' response to androgens. […] A color detection method was subsequently employed to examine AR and actin protein signals in the membranes, and the resultant protein signals were quantitated by densitometry. […]",
  "data": [
    {"compound": "COc1ccc(C=CC(=O)C=C(O)C=Cc2ccc(OC)c(OC)c2)cc1OC", "note": "[JC9, 5-hydroxy-1,7-bis(3,4-dimethoxyphenyl)-1,4,6-heptatrien-3-one]", "values": [
      {"measurement": "time at which AR reduction was first observed", "setting": "5 μM JC9, continuous incubation", "value": 2, "unit": "days"},
      {"measurement": "AR level remaining (normalized AR signal, percentage of baseline Day 0)", "setting": "5 μM JC9, end of 5-day incubation", "value": "~10", "unit": "%"}
    ]}
  ]
}
